The values below come from patent US9226904B2, “Pharmacological treatment of Parkinson's disease” (The United States of America as Represented by the …, priority 2006, dated 2016).

Each structure is given as a SMILES string.

For data set [1], the system named is hemi-lesioned 6-OHDA-treated rat. Kind of data set: Rotational activity (contralateral turns) in hemi-lesioned 6-OHDA-treated rat model of Parkinson's disease. The settings on record: for direction of turning elicited: daily s.c. dosing, R(+)-8-OHDPAT 0.3 mg/kg; for rotational response on day 15 of once daily administration: SKF 38393 0.1, 0.3 or 1.0 mg/kg with vehicle or with R(+)-8-OHDPAT 0.3 mg/kg, once daily 15 days, FIG. 10. It counts as in vivo.

The test system of a further data set is ΔFosB. Kind of data set: Immunoblot of ΔFosB in denervated striatum of unilateral 6-OHDA-lesioned rats. The class given is in vivo, rat. The settings on record: once daily for 15 days; L-DOPA 25 mg/kg plus 6.25 mg/kg benserazide; SKF 38393 1 mg/kg; R(+)-8-OHDPAT 0.3 mg/kg concomitant with SKF 38393; FIG. 9; p<0.05. How it is done: To test whether a drug-related rise in ΔFosB contributes to dyskinesias elicited by repeated L-DOPA treatment, ΔFosB levels were assessed by immunoblotting. FIG. 8 provides an image of a typical blot. […] Thus a significant target of the treatments of the present invention is contemplated to be ΔFosB in the striatum. Even so, knowledge of the mechanism(s) is not necessary in order to make and use the present invention.
(A western blot detects proteins with antibodies after separation by electrophoresis.)

Data set [2] has as its system hemi-lesioned 6-OHDA-treated rat. Kind of data set: Rotational activity (contralateral turns) in hemi-lesioned 6-OHDA-treated rat model of Parkinson's disease. The settings on record: for contralateral turning after D1 agonist SKF 38393 (0.1 mg/kg) on test day: 14 days R(+)-8-OHDPAT 0.3 mg/kg or vehicle, then same plus SKF 38393 0.1 mg/kg on test day, observed 3 hr, FIG. 2, p<0.005. It counts as in vivo. How it is done:
Rats were rendered parkinsonian on one side of the brain by unilateral destruction of nigrostriatal dopamine neurons using the selective neurotoxin 6-OHDA and stereotaxic procedures. Animals were allowed to recover for at least 2 weeks following this procedure. Animals were then screened for efficacy of the lesion by subcutaneous injection of L-DOPA (25 mg/kg) plus the decarboxylase inhibitor benserazide (6.25 mg/kg) followed by assessment of motor activity.
Anti-parkinsonian action in the hemi-lesioned 6-OHDA-treated rat model was assessed by the elicitation of rotational activity to the side opposite the lesioned hemisphere (contralateral turns) following drug treatment. The number of contralateral turns was assessed by videotape recording of animals and counting the number of turns.
One group (controls) received a daily subcutaneous injection of vehicle (0.9% saline containing 0.1 mg/kg ascorbate; 1 ml/kg) for 14 days and the other group (8-OHDPAT) received a daily subcutaneous injection of R(+)-8-OHDPAT (0.3 mg/kg in 1 ml/kg volume) for 14 days. Beginning on day 15, both groups of rats were tested for motor activity and dyskinetic activity in response to the D1 receptor partial agonist SKF 38393 or the D2 receptor agonist quinpirole. Such testing was carried out in a randomized fashion with different doses of dopamine agonist being tested every 4th day (e.g. 3 days between dopamine agonist administration). Throughout this testing phase the control group continued to receive daily injection of vehicle and the 8-OHDPAT group continued to receive daily injection of 0.3 mg/kg R(+)-8-OHDPAT. On days when dopamine agonists were tested the vehicle or R(+)-8-OHDPAT was administered simultaneously with the dopamine agonist.

Data set [3] has the same test system. Kind of data set: Observer assessment of motor dyskinesias (dyskinesia index) during rotational test. The class given is in vivo. The settings on record: repeated R(+)-8-OHDPAT administration, 3 hr rotational test. How it is done:
Observer assessment of motor dyskinesias was carried out be viewing the videotaped recording of rats during testing for rotational activity. A dyskinesia score was generated at 10 minute intervals throughout the course of the rotational test (generally 3 hr). Dyskinesia scores were based on the following scale: 0-no evidence of abnormal activity; 1 mild, intermittent forelimb dyskinesia; 2-severe, more persistent forelimb dyskinesia associated with animal directing activity toward forelimb; 3-severe limb and axial dyskinesia associated with loss of balance and consistent “barrel-rolling” activity. The dyskinesia scores that were obtained were averaged to generate a dyskinesia index.
The experiments described in this example were conducted as described above. A dyskinesia index for each animal was determined during a 3 hr rotational test.

The conditions of data set [4]: coadministration with levodopa; Bibbiani et al., Neurology 2001; cited from earlier work.
Where [5] appears, read: L-DOPA 10 mg/kg + 6.25 mg/kg benserazide, FIG. 1.

In the case of `N[C@@H](Cc1ccc(O)c(O)c1)C(=O)O` [L-DOPA, levodopa], the “direction of turning elicited” value in data set [1] (setting [5]) was “almost exclusively contralateral turning”. In data set [1] (repeated daily s.c. dosing, L-DOPA 10 mg/kg + 6.25 mg/kg benserazide, R(+)-8-OHDPAT 0.3 mg/kg where given, FIG. 1), the “contralateral turning on Day 15 relative to Day 1” value is on record as “approximately 3 fold”. Also, the “coordination of the turning response (observed, not quantified)” value in data set [1] (upon repeated daily administration, L-DOPA 10 mg/kg + benserazide, R(+)-8-OHDPAT 0.3 mg/kg where given) is “progressively more uncoordinated”. Besides, the “ΔFosB in the denervated striatum” value in the data set on ΔFosB is given as “significant increase”.

Regarding `CCCN(CCC)C1CCc2cccc(O)c2C1` (stereo not drawn) [R(+)-8-OHDPAT, 8-hydroxy-2-(di-n-propylamino)tetralin], the “rotational response, pre-screened (primed) versus non-pre-screened (unprimed) rats” value in data set [1] (15 days once daily R(+)-8-OHDPAT 0.3 mg/kg plus SKF 38393 0.3 mg/kg, FIG. 11) was “no significant difference”. Besides, the “rotational response on day 15 of once daily administration” value in data set [1] is on record as “significantly greater contralateral turning response”. For the same compound, the “direction of turning elicited” value in data set [1] (setting [5]) is “ipsilateral turning could be elicited”. The “ΔFosB in the denervated striatum” value with ΔFosB was “prevents the D1 agonist-induced rise in ΔFosB”. In data set [2] (14 day pretreatment with R(+)-8-OHDPAT 0.3 mg/kg plus concomitant R(+)-8-OHDPAT+SKF 38393 0.3 mg/kg on test day, FIG. 4, p<0.001), the “anti-parkinsonian action (contralateral turning), chronic and concomitant versus acute administration” value is recorded as “significant anti-parkinsonian action greater than all other treatment groups”. In addition, the “contralateral turning after D1 agonist SKF 38393 (0.1 mg/kg) on test day” value in data set [2] is listed as “pronounced contralateral turning”. In addition, in data set [2] (14 days R(+)-8-OHDPAT 0.3 mg/kg, then R(+)-8-OHDPAT plus quinpirole 0.05 mg/kg on test day, vs vehicle plus quinpirole, 3 hr, FIG. 3, p<0.001), the “contralateral turning after D2 agonist quinpirole (0.05 mg/kg) on test day” value is “significantly greater contralateral turning”. Further, the “dyskinetic behavior (dyskinesia index) elicited by SKF 38393 (3.0 mg/kg)” value in data set [3] (FIG. 5) was “reduced dyskinetic behavior”. Also, the “dyskinetic behavior (dyskinesia index) elicited by quinpirole (0.05 mg/kg)” value in data set [3] (FIG. 6) is on record as “reduced dyskinetic behavior”.

As for `Oc1cc2c(cc1O)C(c1ccccc1)CNCC2` (stereo not drawn) [SKF 38393], the “rotational response on day 15 of once daily administration” value in data set [1] is “little net contralateral turning”. The “ΔFosB in the denervated striatum” value in the data set with ΔFosB is given as “significant increase”. For the same compound, the “contralateral turning after D1 agonist SKF 38393 (0.1 mg/kg) on test day” value in data set [2] is “no contralateral turning”.

Consider `COc1ccccc1N1CCN(CCN(C(=O)C2CCCCC2)c2ccccn2)CC1` [WAY 100635], for which the “effect of 5-HT1A antagonist pretreatment on R(+)-8-OHDPAT-facilitated anti-parkinsonian action of SKF 38393” value in data set [2] (WAY 100635 0.1 mg/kg on test day prior to R(+)-8-OHDPAT 0.3 mg/kg plus SKF 38393 0.3 mg/kg, at least 14 days daily R(+)-8-OHDPAT, FIG. 7) is given as “blocked the facilitating effects”.

As to `Fc1ccc(-c2cncc(CNC[C@H]3CCc4ccccc4O3)c2)cc1` [sarizotan], the “motor complications of levodopa treatment” value in data set [4] is “reduced motor complications”.
